Test: in vitro
Settings: human, hela cells, % viability

SMILES | viability at 28.5 h, 10 µM | viability at 28.5 h, 10 µM (bulk resorufin, single well)
O=C(NCCN1CCCC1)C1CCCN(c2nc3c(-c4ccccc4)csc3c(=O)[nH]2)C1 (stereo not drawn) [CBK215507] | 109% | –
O=C(NCCN1CCOCC1)C1CCCN(c2nc3c(-c4ccccc4)csc3c(=O)[nH]2)C1 (stereo not drawn) [CBK215509] | 106% | –
Cc1ccc(-c2csc3c(=O)[nH]c(N4CCCC(C(=O)NCC(N)=O)C4)nc23)cc1 (stereo not drawn) [CBK215542] | 98.3% | –
Cc1ccc(-c2csc3c(=O)[nH]c(N4CCCC(C(=O)NCc5cccnc5)C4)nc23)cc1 (stereo not drawn) [CBK215546] | 91.7% | –
COCCCNC(=O)C1CCCN(c2nc3c(-c4ccc(C)cc4)csc3c(=O)[nH]2)C1 (stereo not drawn) [CBK215548] | 83.1% | –
O=C(C1CCCN(c2nc3c(-c4ccccc4)csc3c(=O)[nH]2)C1)N1CCOCC1 (stereo not drawn) [CBK215582] | 83.7% | –
COc1cccc(CNC(=O)C2CCN(c3nc4c(-c5cccc(C)c5)csc4c(=O)[nH]3)CC2)c1 [CBK215603] | 84.9% | –
Cc1cccc(-c2csc3c(=O)[nH]c(N4CCC(C(=O)NCc5cccnc5)CC4)nc23)c1 [CBK215624] | 86.8% | –
Cc1cccc(-c2csc3c(=O)[nH]c(N4CCC(C(=O)NCCc5cccnc5)CC4)nc23)c1 [CBK215627] | 94% | –
COCCNC(=O)C1CCN(c2nc3c(-c4cccc(C)c4)csc3c(=O)[nH]2)CC1 [CBK215629] | 93.1% | –
O=[N+]([O-])c1ccc(Cl)cc1N/N=C1\CN2CCC1CC2 [CBK217272] | 108% | –
CC(=O)NC(Cc1c[nH]c2ccccc12)C(=O)O (stereo not drawn) [CBK217373] | 95.9% | –
CCOC(=O)c1c(CSc2ccc(Cl)cc2)n(C)c2cc(Br)c(O)c(CN(C)C)c12 [CBK217489C] | 108% | –
CC(=O)c1c(C)n(O)c2ccc(Cl)cc2c1=O [CBK217746] | 107% | –
COc1ccc(-c2c(C(F)(F)F)oc3c(CN4CC(C)OC(C)C4)c(O)ccc3c2=O)cc1OC (stereo not drawn) [CBK217829] | 100% | –
CCCCc1c(C(=O)O)cc(OC)cc1C(=O)O [CBK217866] | 93.5% | –
C[N+]1(C)CCCC1c1cc(Br)cnc1N (stereo not drawn) [CBK217873I] | 90.8% | –
CC(C)(C)c1ccc(Oc2c(C(F)(F)F)oc3cc(OCC(=O)O)ccc3c2=O)cc1 [CBK217882] | 94.1% | –
CC(Cc1c[nH]c2ccccc12)NC(=O)CN (stereo not drawn) [CBK218213C] | 100% | –
c1cncc(CN2CCN(Cc3c[nH]c4ccccc34)CC2)c1 [CBK218281] | 92.2% | –
COc1ccc(NC(=O)CSc2nc3c(N)ncnc3[nH]2)cc1 [CBK218441] | 91.4% | –
CC1NC(C(=O)O)Cc2c1[nH]c1ccccc21 (stereo not drawn) [CBK218664] | 102% | –
O=C(O)COc1cccc2ccccc12 [CBK218704] | 106% | –

SMILES | viability at 28.5 h, 10 µM | viability at 28.5 h, 10 µM (bulk resorufin, single well)
CC(=O)NC(CCCN=C(N)N)C(=O)O (stereo not drawn) [CBK218726] | 107% | –
Cc1ccc2nc(NC3=NC(CC(=O)O)C(=O)N3)nc(C)c2c1 (stereo not drawn) [CBK218806] | 90.3% | –
O=C(O)c1ccc(NC2OC(CO)C(O)C2O)cc1 (stereo not drawn) [CBK218836] | 95.9% | –
NC(=O)NC(Cc1c[nH]c2ccccc12)C(=O)O (stereo not drawn) [CBK218895] | 105% | –
COc1cc2c(cc1OC)C(C(=O)O)CC(=O)N2 (stereo not drawn) [CBK218955] | 87.4% | –
COc1cc(C2NC(C(=O)O)Cc3c2[nH]c2ccccc32)cc(OC)c1OC (stereo not drawn) [CBK219193] | 101% | –
CCc1c(O)c2ccccc2n(Cc2ccccc2)c1=O [CBK219367] | 90% | –
Cc1nc2cc(C(=O)O)ccc2[nH]1 [CBK220035] | 84.6% | –
O=C(Nc1ccc2c(c1)OCCO2)c1cnccn1 [CBK220830] | 92.8% | –
O=C(CSc1nc2ccccc2o1)N1c2ccccc2Sc2ccccc21 [CBK221524] | 97.7% | –
Clc1ccc(SCc2cccc(CSc3ccc(Cl)c(Cl)c3)n2)cc1Cl [CBK223404] | 86.3% | –
O=C1c2ccccc2C(=O)N1CN(CCc1ccc(Cl)cc1)CN1C(=O)c2ccccc2C1=O [CBK225934] | 90.8% | –
CC(=O)Nc1ccc(NC(=O)CSCC(=O)O)cc1 [CBK226269] | 89.3% | –
NS(=O)(=O)c1ccc(CNS(=O)(=O)Cc2ccccc2)cc1 [CBK228048] | 87% | –
O=C(O)Cc1c[nH]c2ccccc12 [CBK228897G] | 102% | –
O=C1NC(=O)C(=Cc2ccc(-c3ccc([N+](=O)[O-])cc3)o2)C(=O)N1 [CBK229904] | – | 114%
O=C(NCCc1c[nH]c2ccccc12)c1cccs1 [CBK231038] | 88.2% | –
O=C(O)CCCC(=O)Nc1ccccc1-c1ccccc1 [CBK231405] | 94.9% | –
Cc1ccc(OCc2cc(-c3ccco3)on2)c([N+](=O)[O-])n1 [CBK233261] | 98.8% | –
Cc1c(C(=O)C2=C(O)C(=O)N(Cc3cccnc3)C2c2ccncc2)cnn1-c1ccccc1 (stereo not drawn) [CBK233899] | 114% | –
Cc1ccc(C2C(C(=O)c3sc(-c4ccccc4)nc3C)=C(O)C(=O)N2CCN(C)C)o1 (stereo not drawn) [CBK234004] | 107% | –
Cc1oc(NC(=O)CN2CCN(c3ccccn3)CC2)c(C#N)c1C [CBK236456] | 96.9% | –
CC1(C)NC(=O)N(CCCC(=O)NCc2coc(-c3cccs3)n2)C1=O [CBK237157] | 105% | –

SMILES | viability at 28.5 h, 10 µM | viability at 28.5 h, 10 µM (bulk resorufin, single well)
Cn1ncc2c(=O)n(Cc3nnsc3Cl)cnc21 [CBK237374] | 102% | –
Cc1nc(-c2ccc(CNC(=O)c3cc(=O)[nH]c4ccccc34)o2)cs1 [CBK238261] | 79.2% | –
O=C(c1ccco1)N1CCN(CC(=O)N2c3ccccc3OCC2c2ccccc2)CC1 (stereo not drawn) [CBK239722] | 89.9% | –
CSCc1nnc(SCCC(=O)N2CCN(c3ccc(F)cc3)CC2)o1 [CBK240463] | 93.2% | –
COC(=O)c1cc(-c2c[nH]c3ccccc23)[nH]n1 [CBK241010] | 92.5% | –
CC(c1ccc(Cl)cc1Cl)N(C)C(=O)c1ccc(S(C)(=O)=O)cc1 (stereo not drawn) [CBK242418] | 113% | –
CC(=O)N1CCCN(C(=O)Cn2cnc3ccc(F)cc3c2=O)CC1 [CBK245206] | 106% | –
CCOc1ncccc1NC(=O)C(C)n1cccn1 (stereo not drawn) [CBK245377] | 105% | –
COCCN1CC2=C(C1=O)C(c1ccc(F)cc1)NC(=O)N2 (stereo not drawn) [CBK249447] | 81.9% | –
Cc1nn(C)c(C)c1CC(=O)Nc1nc(C(C)(C)C)cs1 [CBK250992] | 105% | –
CN(Cc1cnn(C)c1)C(=O)c1cc(O)nc2ccccc12 [CBK251706] | 106% | –
COc1ccc(CN2CCCN(C(=O)c3ccc(F)cc3Br)CC2)cc1 [CBK251752] | 88.1% | –
CC(=O)Nc1ccc(CNC(=O)c2ccc(C(F)(F)F)cn2)cc1 [CBK252121] | 92% | –
O=C(NCCNc1cnccn1)c1cc(Br)ccc1F [CBK253480] | 110% | –
Cc1ccc(C(=O)N2CCC(c3nc4ccccc4s3)CC2)cc1NS(C)(=O)=O [CBK254629] | 89.2% | –
CS(=O)(=O)c1ccc(C(=O)Nc2nccs2)cc1 [CBK255213] | 98.3% | –
COCC(=O)Nc1ccc(N2CCCC2=O)c(Cl)c1 [CBK256871] | 106% | –
COc1ccc(CN(C(=O)c2cccc(-n3cnnn3)c2)C2CC2)cc1 [CBK256997] | 91.6% | –
Cc1cc(NC(=O)CN(C)CC(=O)Nc2ccc(Br)cc2C)no1 [CBK260700] | 92.9% | –
C/C(=N/OCO/N=C(\C)c1cccc([N+](=O)[O-])c1)c1cccc([N+](=O)[O-])c1 [CBK260872] | 89% | –
CC(C)(C)c1cc(C(=O)O)[nH]n1 [CBK260874] | 103% | –
NC(CCC(=O)O)C(=O)O (stereo not drawn) [CBK260875C] | 97.3% | –
O=C(NNc1ccccc1)c1c(O)c2ccccc2oc1=O [CBK260878] | 75.1% | –

SMILES | viability at 28.5 h, 10 µM | viability at 28.5 h, 10 µM (bulk resorufin, single well)
CC(C)(C)S(=O)(=O)c1ccc(C(=O)O)s1 [CBK260880] | 91.4% | –
O=C(C[n+]1ccc(CCSCc2ccc3c4c(cccc24)CC3)cc1)c1ccc2c3c(cccc13)CC2 [CBK260881B] | 96.4% | –
CCC(C)c1cc([N+](=O)[O-])cc([N+](=O)[O-])c1OC(=O)OC(C)C (stereo not drawn) [CBK260882] | 99.2% | –
Cc1ccc(C2N(Cc3ccccc3)CCN2Cc2ccccc2)o1 [CBK260883] | 98.3% | –
C(=N\c1ccc(Cc2ccc(/N=C/c3cccnc3)cc2)cc1)/c1cccnc1 [CBK260884] | 95% | –
c1ccc(CN2CCN(Cc3ccccc3)C2c2cccnc2)cc1 [CBK260885] | 93.2% | –
CC(=O)Nc1ccc(Nc2ccc([N+](=O)[O-])cc2[N+](=O)[O-])cc1 [CBK260886] | 84.6% | –
c1ccc(CN2CCN(Cc3ccccc3)C2c2ccco2)cc1 [CBK260888] | 99.6% | –
O=C(O)CCC(=O)Nc1cccc2ccccc12 [CBK260889] | 112% | –
CC(C)(C)C1CCC(OC(=O)CCC(=O)Nc2nccs2)CC1 (stereo not drawn) [CBK260890] | 96.9% | –
O=C(CCSS(=O)(=O)O)N1CCc2ccccc21 [CBK260892N] | 94.4% | –
COc1cc([N+](=O)[O-])c2[nH]c(C(=O)O)c(CCNC(C)=O)c2c1 [CBK260895] | 105% | –
OCC(O)CN1CCc2ccccc21 (stereo not drawn) [CBK260896] | 101% | –
O=C(O)CC[n+]1c(/C=C/Nc2ccccc2)oc2ccccc21 [CBK260898B] | 93.3% | –
CC/C(=C/c1sc2ccc3ccccc3c2[n+]1CCCS(=O)(=O)[O-])SC [CBK260901] | 104% | –
O=C(O)CN(Cc1ccccc1)Cc1ccccc1 [CBK260903] | 104% | –
O=C(O)C(Cc1ccccc1)N1C(=O)c2ccccc2C1=O (stereo not drawn) [CBK260904] | 97.6% | –
O=C(O)C(=C/C=C/Br)C(=O)O [CBK260906] | 92.6% | –
COc1ccc(N2C(=O)CC(N3CCN(C4CC(=O)N(c5ccc(OC)cc5)C4=O)CC3)C2=O)cc1 (stereo not drawn) [CBK260907] | 88.2% | –
COc1ccc(C2NC(C(=O)O)CS2)c(OC)c1 (stereo not drawn) [CBK260908] | 99.2% | –
O=C(O)C1CSC(c2ccc([N+](=O)[O-])cc2)N1 (stereo not drawn) [CBK260909] | 103% | –

From paper PMC12040169 (PLOS Biology, 2025)
